Experimental data: ChEMBL document CHEMBL4627246, “Pyroglutamide-Based P2X7 Receptor Antagonists Targeting Inflammatory Bowel Disease” (J Med Chem, 2020)

Tests used:
Type in all cases: cell-based
SW-620 = test: Cytotoxicity against human SW620 cells assessed as effect on cell growth at 10 uM incubated for 48 hrs by sulforhodamine B assay; conditions: sw-620, 48 h
HL-60(TB) = test: Cytotoxicity against human HL-60(TB) cells assessed as effect on cell growth at 10 uM incubated for 48 hrs by sulforhodamine B assay
CAKI-1 = test: Growth inhibition of human Caki1 cells assessed as growth percentage at 10 uM incubated for 48 hrs by sulforhodamine B assay; conditions: caki-1, 48 h
CCRF-CEM = test: Cytotoxicity against human CCRF-CEM cells assessed as effect on cell growth at 10 uM incubated for 48 hrs by sulforhodamine B assay
MDA-MB-231 = test: Cytotoxicity against human MDA-MB-231 cells assessed as effect on cell growth at 10 uM incubated for 48 hrs by sulforhodamine B assay; conditions: mda-mb-231, 48 h
NCI-H23 = test: Cytotoxicity against human NCI-H23 cells assessed as effect on cell growth at 10 uM incubated for 48 hrs by sulforhodamine B assay; conditions: nci-h23, 48 h
HOP-92 = test: Cytotoxicity against human HOP92 cells assessed as effect on cell growth at 10 uM incubated for 48 hrs by sulforhodamine B assay; conditions: hop-92, 48 h
Malme-3M = test: Cytotoxicity against human MALME-3M cells assessed as effect on cell growth at 10 uM incubated for 48 hrs by sulforhodamine B assay
NCI-H322M = test: Cytotoxicity against human NCI-H322M cells assessed as effect on cell growth at 10 uM incubated for 48 hrs by sulforhodamine B assay
RPMI-8226 = test: Cytotoxicity against human RPMI8226 cells assessed as effect on cell growth at 10 uM incubated for 48 hrs by sulforhodamine B assay; conditions: rpmi-8226, 48 h
ACHN = test: Cytotoxicity against human ACHN cells assessed as effect on cell growth at 10 uM incubated for 48 hrs by sulforhodamine B assay
SF-268 = test: Cytotoxicity against human SF268 cells assessed as effect on cell growth at 10 uM incubated for 48 hrs by sulforhodamine B assay; conditions: sf-268, 48 h
HCT-15 = test: Cytotoxicity against human HCT15 cells assessed as effect on cell growth at 10 uM incubated for 48 hrs by sulforhodamine B assay; conditions: hct-15, 48 h
U-251 = test: Cytotoxicity against human U251 cells assessed as effect on cell growth at 10 uM incubated for 48 hrs by sulforhodamine B assay; conditions: u-251, 48 h
M14 = test: Cytotoxicity against human M14 cells assessed as effect on cell growth at 10 uM incubated for 48 hrs by sulforhodamine B assay; conditions: m14, 48 h
OVCAR-4 = test: Cytotoxicity against human OVCAR4 cells assessed as effect on cell growth at 10 uM incubated for 48 hrs by sulforhodamine B assay; conditions: ovcar-4, 48 h
SNB-75 = test: Cytotoxicity against human SNB75 cells assessed as effect on cell growth at 10 uM incubated for 48 hrs by sulforhodamine B assay; conditions: snb-75, 48 h
MOLT-4 = test: Cytotoxicity against human MOLT4 cells assessed as effect on cell growth at 10 uM incubated for 48 hrs by sulforhodamine B assay; conditions: molt-4, 48 h
IGROV-1 = test: Cytotoxicity against human IGROV1 cells assessed as effect on cell growth at 10 uM incubated for 48 hrs by sulforhodamine B assay; conditions: igrov-1, 48 h
PC-3 = test: Cytotoxicity against human PC3 cells assessed as effect on cell growth at 10 uM incubated for 48 hrs by sulforhodamine B assay; conditions: pc-3, 48 h

Measured: Activity

O=C1N[C@H](C(=O)NCc2ccc(Cl)cc2Cl)C/C1=C/NCc1ccc(Cl)cc1Cl
Non-Toxic: all assays above

O=C(NCc1ccc(Cl)cc1Cl)[C@@H]1CCC(=O)N1Cc1ccccc1
Non-Toxic: all assays above

O=C1N[C@H](C(=O)NCc2ccc(Cl)cc2Cl)CO1
Non-Toxic: all assays above

O=C(NCc1ccc(Cl)cc1Cl)c1ccccn1
Non-Toxic: all assays above

C[n+]1ccccc1C(=O)NCc1ccc(Cl)cc1Cl.[I-]
Non-Toxic: all assays above

CN(C)C(=O)[C@@H]1CCC(=O)N1
Non-Toxic: all assays above

O=C(NCc1ccc(Cl)cc1Cl)[C@@H]1CCC(=O)N1c1ccccc1
Non-Toxic: all assays above

O=C(Nc1ccc(Cl)cc1Cl)[C@@H]1CCC(=O)N1Cc1ccccc1Cl
Non-Toxic: all assays above

O=C1N[C@H](C(=O)NCc2ccc(Cl)cc2Cl)C/C1=C\N1CCOCC1
Non-Toxic: all assays above
